For 3 compounds, IC50 results are on record in PMC4774911, “Biochemical Screening of Five Protein Kinases from Plasmodium falciparum against 14,000 Cell-Active Compounds” (PLoS ONE, 2016).

Several values for one entry are separate records, joined by “and”; a condition that tells them apart may be missing. Equal entries are not always repeated.

Some targets named below: PTK2 (Homo sapiens, UniProt Q05397); CLK1 (Homo sapiens, UniProt P49759); FER (Homo sapiens, UniProt P16591); STK16 (Homo sapiens, UniProt O75716); SLK (Homo sapiens, UniProt Q9H2G2); MARK3 (Homo sapiens, UniProt P27448); PIM2 (Homo sapiens, UniProt Q9P1W9); SRC (Homo sapiens, UniProt P12931); DDR1 (Homo sapiens, UniProt Q08345); WEE1 (Homo sapiens, UniProt P30291); CRKRS (Homo sapiens, UniProt Q9NYV4); GSK3A (Homo sapiens, UniProt P49840); PRKACB (Homo sapiens, UniProt P22694).

Holding throughout (test): biochemical
A further test addresses T1, TNK1 (Homo sapiens, UniProt Q13470).
T1 sequence (Q13470 1-666): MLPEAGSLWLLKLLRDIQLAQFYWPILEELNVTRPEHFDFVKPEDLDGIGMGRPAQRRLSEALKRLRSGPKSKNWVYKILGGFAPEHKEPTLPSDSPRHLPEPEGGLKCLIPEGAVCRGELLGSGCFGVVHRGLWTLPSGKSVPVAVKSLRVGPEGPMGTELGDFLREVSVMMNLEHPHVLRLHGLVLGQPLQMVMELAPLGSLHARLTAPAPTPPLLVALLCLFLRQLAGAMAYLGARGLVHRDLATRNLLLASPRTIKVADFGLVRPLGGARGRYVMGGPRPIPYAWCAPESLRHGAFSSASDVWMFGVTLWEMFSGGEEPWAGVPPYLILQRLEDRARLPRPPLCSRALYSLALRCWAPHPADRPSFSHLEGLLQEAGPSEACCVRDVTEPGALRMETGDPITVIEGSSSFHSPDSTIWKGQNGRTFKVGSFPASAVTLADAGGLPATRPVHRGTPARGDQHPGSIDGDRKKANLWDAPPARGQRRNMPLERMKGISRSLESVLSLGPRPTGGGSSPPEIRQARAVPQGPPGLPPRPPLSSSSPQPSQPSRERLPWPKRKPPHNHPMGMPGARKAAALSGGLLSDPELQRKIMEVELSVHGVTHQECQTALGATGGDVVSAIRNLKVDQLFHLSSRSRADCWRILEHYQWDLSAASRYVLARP

The next test addresses T2, ADCK1 (Homo sapiens, UniProt Q86TW2).
T2 sequence (Q86TW2 1-530): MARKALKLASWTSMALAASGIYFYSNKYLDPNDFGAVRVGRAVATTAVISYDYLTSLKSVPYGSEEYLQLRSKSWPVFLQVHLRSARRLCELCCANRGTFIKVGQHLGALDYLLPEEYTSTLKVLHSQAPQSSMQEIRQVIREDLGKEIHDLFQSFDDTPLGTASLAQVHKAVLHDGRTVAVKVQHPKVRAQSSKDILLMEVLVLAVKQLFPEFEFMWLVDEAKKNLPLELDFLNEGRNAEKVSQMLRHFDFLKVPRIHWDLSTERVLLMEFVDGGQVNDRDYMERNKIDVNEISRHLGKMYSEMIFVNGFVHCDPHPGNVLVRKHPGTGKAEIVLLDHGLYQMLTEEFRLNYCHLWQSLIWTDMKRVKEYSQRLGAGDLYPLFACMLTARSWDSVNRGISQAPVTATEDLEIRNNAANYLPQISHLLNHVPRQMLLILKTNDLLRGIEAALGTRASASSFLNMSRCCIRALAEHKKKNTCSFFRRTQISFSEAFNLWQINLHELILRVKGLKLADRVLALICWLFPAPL

The next test deals with T3, PIP4K2A (Homo sapiens, UniProt P48426).
T3 sequence (P48426 1-406): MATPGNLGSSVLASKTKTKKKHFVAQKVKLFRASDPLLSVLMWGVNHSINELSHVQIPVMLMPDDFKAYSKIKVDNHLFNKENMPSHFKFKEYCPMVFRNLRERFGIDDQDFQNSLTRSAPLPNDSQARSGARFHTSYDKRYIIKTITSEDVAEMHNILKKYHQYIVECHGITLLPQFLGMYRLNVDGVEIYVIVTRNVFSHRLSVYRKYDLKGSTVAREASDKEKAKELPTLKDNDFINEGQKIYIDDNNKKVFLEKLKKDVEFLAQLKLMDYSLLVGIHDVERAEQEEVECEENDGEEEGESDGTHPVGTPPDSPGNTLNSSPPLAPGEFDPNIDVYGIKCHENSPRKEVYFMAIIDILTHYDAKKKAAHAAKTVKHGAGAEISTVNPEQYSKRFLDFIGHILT

Another test addresses T4, STK11 (Homo sapiens, UniProt Q15831).
T4 sequence (Q15831 1-433): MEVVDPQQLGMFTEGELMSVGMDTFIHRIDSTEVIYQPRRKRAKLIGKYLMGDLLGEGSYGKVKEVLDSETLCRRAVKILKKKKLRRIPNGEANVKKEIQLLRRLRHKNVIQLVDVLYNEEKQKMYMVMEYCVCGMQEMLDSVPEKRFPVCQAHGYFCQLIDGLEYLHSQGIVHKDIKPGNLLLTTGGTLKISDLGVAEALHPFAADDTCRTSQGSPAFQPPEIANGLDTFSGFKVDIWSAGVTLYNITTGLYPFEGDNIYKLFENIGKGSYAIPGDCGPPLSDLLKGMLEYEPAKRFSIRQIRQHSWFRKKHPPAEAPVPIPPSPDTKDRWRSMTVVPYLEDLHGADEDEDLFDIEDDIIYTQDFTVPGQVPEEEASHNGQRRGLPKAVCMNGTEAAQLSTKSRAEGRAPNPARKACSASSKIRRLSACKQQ

Chain of DDR1 (Q08345 whole entry): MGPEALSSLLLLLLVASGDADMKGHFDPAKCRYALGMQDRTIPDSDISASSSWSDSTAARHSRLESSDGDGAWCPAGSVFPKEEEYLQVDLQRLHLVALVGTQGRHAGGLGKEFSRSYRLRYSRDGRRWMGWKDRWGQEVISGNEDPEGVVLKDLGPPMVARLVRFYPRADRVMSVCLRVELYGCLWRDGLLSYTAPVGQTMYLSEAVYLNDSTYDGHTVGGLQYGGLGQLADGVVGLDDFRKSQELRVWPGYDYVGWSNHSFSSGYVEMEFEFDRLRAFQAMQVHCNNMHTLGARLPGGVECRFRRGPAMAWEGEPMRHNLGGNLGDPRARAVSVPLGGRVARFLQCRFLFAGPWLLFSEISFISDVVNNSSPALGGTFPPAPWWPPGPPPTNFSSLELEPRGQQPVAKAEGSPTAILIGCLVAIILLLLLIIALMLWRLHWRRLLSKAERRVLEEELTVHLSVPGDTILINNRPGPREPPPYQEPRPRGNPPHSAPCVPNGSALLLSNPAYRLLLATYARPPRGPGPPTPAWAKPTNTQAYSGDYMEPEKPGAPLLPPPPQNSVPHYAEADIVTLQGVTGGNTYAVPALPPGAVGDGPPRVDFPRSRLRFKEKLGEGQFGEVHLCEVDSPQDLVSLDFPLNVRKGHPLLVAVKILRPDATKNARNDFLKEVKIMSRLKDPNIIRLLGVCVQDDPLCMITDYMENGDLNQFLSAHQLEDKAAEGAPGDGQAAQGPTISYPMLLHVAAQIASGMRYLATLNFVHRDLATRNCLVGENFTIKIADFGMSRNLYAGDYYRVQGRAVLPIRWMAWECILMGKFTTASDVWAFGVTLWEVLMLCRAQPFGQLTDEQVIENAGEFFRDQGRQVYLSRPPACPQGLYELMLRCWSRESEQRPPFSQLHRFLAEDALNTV
Chain of PTK2 (Q05397 whole entry): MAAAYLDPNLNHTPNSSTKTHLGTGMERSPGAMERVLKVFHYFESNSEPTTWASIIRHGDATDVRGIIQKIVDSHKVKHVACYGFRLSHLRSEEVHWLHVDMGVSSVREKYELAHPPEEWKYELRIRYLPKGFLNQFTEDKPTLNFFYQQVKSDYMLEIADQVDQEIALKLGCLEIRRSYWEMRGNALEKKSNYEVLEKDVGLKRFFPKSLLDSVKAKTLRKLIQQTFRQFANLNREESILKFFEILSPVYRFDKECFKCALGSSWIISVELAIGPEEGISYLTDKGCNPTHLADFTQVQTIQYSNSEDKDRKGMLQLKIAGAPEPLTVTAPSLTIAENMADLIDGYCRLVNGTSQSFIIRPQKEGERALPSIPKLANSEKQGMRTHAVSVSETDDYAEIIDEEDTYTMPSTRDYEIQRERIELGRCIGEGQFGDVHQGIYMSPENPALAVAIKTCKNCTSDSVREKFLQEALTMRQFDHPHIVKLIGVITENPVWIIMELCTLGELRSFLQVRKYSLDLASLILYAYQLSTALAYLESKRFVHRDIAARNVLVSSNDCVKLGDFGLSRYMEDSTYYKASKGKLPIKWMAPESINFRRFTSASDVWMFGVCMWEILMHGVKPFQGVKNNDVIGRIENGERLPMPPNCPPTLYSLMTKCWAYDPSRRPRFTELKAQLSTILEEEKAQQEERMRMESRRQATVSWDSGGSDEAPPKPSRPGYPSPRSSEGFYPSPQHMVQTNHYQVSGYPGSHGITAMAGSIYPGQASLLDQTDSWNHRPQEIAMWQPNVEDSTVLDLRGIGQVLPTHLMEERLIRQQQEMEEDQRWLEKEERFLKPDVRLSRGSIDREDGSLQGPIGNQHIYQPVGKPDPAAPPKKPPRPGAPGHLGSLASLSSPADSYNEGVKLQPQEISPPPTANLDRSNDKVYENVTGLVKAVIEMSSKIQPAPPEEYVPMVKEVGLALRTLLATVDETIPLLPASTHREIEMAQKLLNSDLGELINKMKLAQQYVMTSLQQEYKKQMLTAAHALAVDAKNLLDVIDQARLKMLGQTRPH
Chain of SRC (P12931 whole entry): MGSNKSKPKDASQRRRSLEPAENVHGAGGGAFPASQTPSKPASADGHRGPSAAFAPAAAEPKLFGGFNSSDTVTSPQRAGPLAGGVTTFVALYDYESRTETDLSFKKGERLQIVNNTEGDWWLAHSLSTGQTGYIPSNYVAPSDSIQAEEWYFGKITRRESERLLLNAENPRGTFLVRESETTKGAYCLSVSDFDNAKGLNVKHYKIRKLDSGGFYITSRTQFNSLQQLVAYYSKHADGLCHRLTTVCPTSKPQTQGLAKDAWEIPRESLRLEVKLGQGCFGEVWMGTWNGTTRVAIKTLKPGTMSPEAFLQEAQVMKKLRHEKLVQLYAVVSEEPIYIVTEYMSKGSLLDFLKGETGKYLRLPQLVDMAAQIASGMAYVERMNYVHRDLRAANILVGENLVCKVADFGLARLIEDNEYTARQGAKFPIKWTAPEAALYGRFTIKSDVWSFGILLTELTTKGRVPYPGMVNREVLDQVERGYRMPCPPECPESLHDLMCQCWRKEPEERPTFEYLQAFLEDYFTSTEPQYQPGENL
Chain of CRKRS (Q9NYV4 whole entry): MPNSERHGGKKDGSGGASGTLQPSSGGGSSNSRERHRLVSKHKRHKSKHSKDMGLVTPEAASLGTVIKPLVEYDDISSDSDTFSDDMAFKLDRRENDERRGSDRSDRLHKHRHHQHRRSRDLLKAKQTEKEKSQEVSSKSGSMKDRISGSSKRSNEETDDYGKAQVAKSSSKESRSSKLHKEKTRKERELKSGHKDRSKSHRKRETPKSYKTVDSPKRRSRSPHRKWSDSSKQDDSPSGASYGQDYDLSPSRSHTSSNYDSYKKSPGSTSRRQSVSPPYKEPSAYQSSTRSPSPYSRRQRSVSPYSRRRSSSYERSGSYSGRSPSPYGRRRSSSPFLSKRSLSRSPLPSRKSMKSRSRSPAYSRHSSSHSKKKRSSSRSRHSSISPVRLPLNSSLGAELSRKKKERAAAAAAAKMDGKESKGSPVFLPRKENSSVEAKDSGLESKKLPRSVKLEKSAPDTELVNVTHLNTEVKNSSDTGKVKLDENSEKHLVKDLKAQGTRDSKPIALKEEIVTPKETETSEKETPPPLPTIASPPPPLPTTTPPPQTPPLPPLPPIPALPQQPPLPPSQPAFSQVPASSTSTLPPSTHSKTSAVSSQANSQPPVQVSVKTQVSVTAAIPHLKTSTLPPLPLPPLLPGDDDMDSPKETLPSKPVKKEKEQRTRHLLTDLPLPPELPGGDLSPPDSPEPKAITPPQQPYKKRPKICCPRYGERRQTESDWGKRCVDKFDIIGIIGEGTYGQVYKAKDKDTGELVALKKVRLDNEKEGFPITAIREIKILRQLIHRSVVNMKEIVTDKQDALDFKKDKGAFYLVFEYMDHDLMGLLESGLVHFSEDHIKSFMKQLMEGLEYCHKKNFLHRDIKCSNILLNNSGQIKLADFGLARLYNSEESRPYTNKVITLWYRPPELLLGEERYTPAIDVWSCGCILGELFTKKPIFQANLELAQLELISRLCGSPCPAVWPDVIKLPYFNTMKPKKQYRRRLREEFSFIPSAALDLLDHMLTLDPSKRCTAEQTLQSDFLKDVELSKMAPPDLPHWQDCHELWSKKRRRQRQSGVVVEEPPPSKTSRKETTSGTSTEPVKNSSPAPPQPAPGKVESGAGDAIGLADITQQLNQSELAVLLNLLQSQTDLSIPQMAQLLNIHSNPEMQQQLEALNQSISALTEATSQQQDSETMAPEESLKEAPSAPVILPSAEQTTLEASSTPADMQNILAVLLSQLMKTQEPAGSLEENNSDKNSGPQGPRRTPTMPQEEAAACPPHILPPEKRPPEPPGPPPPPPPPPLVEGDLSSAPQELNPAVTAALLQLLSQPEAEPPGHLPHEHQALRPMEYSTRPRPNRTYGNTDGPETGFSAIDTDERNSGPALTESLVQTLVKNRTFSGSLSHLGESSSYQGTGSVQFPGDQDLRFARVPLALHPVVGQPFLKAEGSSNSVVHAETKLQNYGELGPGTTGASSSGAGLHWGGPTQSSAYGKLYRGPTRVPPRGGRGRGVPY
Chain of STK16 (O75716 whole entry): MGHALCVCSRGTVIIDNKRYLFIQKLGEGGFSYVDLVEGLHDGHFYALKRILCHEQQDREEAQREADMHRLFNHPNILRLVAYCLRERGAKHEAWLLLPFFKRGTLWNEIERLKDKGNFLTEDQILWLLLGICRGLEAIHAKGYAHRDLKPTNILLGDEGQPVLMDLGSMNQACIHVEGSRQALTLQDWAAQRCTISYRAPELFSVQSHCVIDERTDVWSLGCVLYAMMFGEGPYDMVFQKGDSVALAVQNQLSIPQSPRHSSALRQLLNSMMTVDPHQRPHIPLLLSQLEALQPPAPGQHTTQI
Chain of MARK3 (P27448 whole entry): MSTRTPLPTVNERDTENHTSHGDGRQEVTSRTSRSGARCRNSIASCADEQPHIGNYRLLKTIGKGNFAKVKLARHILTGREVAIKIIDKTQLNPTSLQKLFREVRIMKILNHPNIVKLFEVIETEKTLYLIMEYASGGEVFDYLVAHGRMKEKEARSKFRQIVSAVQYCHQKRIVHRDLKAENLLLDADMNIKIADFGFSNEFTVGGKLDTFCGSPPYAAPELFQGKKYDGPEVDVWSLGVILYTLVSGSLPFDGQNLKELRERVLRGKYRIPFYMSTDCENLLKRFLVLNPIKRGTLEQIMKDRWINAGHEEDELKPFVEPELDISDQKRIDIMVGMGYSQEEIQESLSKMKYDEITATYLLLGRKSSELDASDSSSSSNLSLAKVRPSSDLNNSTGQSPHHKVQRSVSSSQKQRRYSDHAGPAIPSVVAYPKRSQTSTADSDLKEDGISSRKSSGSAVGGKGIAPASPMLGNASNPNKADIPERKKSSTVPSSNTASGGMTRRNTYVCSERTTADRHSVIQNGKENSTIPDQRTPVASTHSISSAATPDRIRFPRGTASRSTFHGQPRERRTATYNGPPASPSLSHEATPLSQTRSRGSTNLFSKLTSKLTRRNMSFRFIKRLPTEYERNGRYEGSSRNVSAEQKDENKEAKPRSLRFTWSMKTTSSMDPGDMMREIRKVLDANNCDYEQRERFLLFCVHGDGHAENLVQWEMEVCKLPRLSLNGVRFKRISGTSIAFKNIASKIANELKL

As to `CN1CCN(c2ccc(Nc3ncc(C#N)c(Nc4ccccc4C(N)=O)n3)cc2)CC1.Cl` [TCMDC-134116], the half-inhibitory concentration (IC50) was 44 nM and 58 nM on PTK2; no more than 32 nM against TNK1; 47 nM and 48 nM against CLK1; 220 nM and 210 nM against FER; 270 nM and 380 nM at STK16; 48 nM and 57 nM at SLK. The half-inhibitory concentration (IC50) against MARK3 is 120 nM and 140 nM; against PIM2 it was 4800 nM; at SRC it was 480 nM and 410 nM; at ADCK1, 1000 nM; on DDR1, 600 nM and 490 nM; on PIP4K2A, 1100 nM and 1400 nM. In addition, the concentration for half-maximal inhibition (IC50) against WEE1 is 48 nM and 47 nM; at CRKRS, 650 nM; at GSK3A it was 1400 nM and 1100 nM; on PRKACB it was 6300 nM; against STK11, 1000 nM.
Turning to `Cl.NCC1(c2nc(-c3ccc(Cl)c(O)c3)c(-c3ccncc3)[nH]2)CCCCC1` [TCMDC-141154], the IC50 at PTK2 is greater than 20000 nM; at TNK1, greater than 20000 nM; against CLK1, greater than 20000 nM; against FER, greater than 20000 nM; on STK16, greater than 20000 nM; against SLK it was no more than 32 nM. Besides, the IC50 on MARK3 was greater than 20000 nM; on PIM2, greater than 20000 nM; on SRC, 290 nM; against ADCK1, greater than 20000 nM; against DDR1, 1800 nM; against PIP4K2A, greater than 20000 nM. Further, the IC50 against WEE1 is greater than 20000 nM; at CRKRS, greater than 20000 nM; on GSK3A, greater than 20000 nM; on PRKACB, 890 nM; against STK11, 1400 nM.
For `CN(C)CC(O)COc1ccc(Nc2ncc([N+](=O)[O-])c(Nc3ccccc3O)n2)cc1.O=C(O)C(F)(F)F` (stereo not drawn) [TCMDC-141399], the half-inhibitory concentration (IC50) against PTK2 is 90 nM and 97 nM; against TNK1, 4200 nM and 1700 nM; against CLK1, 390 nM and 270 nM; against FER it was 930 nM and 810 nM; against STK16 it was 1100 nM; against SLK, 890 nM and 1000 nM. For the same compound, the IC50 against MARK3 is 10000 nM and 6600 nM; on PIM2 it was greater than 20000 nM; on SRC, greater than 20000 nM; against ADCK1 it was 1800 nM; against DDR1, 11000 nM; at PIP4K2A, 1200 nM and 950 nM. The IC50 is 580 nM against WEE1; 2100 nM on CRKRS; 6700 nM and 7400 nM at GSK3A; greater than 20000 nM at PRKACB; 4400 nM against STK11.

By IC50 is commonly meant the concentration at which inhibition is half-maximal. Read a high IC50 as lower potency.
